For one data set, the system named is Lewis Lung cells. Kind of data set: murine Lewis lung tumor metastasis model (lung tumor weight). Type of data set: in vivo, C57B1/6 mice.
Data set [1] can be described thus: Pharmacokinetics and organ distribution of ip and iv injected L-CDDP and CDDP (platinum by ICP-MS). Type of data set: in vivo, ICR mice. The note with it: 8 mg/kg. Here is the method: Pharmacokinetics and organ distribution in animals of ip and iv injected lipid-based cisplatin and cisplatin (Part II). Sixty ICR mice (female, 7 weeks old) were divided into 4 groups. They received intraperitoneal or intravenous injection of L-CDDP or CDDP, separately. The dose was 12 mg/kg for ip L-CDDP and 8 mg/kg for the rest of treatment groups. At each designed time point, three to four mice were anaesthetized with 70 mg/kg of Nembutal ip (e.g., 3, 20, and 40 min, and 2, 8, 24, 48, and 72 h). […] Organs including liver, lung, and spleen were resected from the mice. The organ samples were homogenized in distilled water (4-fold of the sample weight) and digested with nitric acid. The platinum concentration in each sample was measured by Inductively Coupled Plasma-Mass Spectrometer (ICP-MS). The pharmacokinetics profiles (FIGS. 4, 5, and 6, all Y-axes are concentration of μg platinum in one gram of tissue or fluid per mg of injected dose) and parameters (Table 4) of each formulation were simulated and calculated.

A short description of data set [2]: Nephrotoxicity at MTD (BUN and kidney pathology grading). Type of data set: in vivo. Conditions: four days after injection. The text has this: Nephrotoxicity. ICR mice, 7 weeks old, female, were divided into 4 groups with 3 to 4 mice in each. […] Four days after the injection, the mice were euthanized with Nembutal ip. The blood was drawn and the serum was isolated. The blood urea nitrogen (BUN) was quantitatively measured with a calorimetric method at Antech Diagnostics. Organs including duodenum, heart, kidney, liver, lung, and spleen were resected from the mice and fixed with 10% buffered Formalin. The fixed tissues were processed with standard procedure for H and E staining. A pathology expert Dr. Carman Tomos at the Memorial Sloan-Kettering Cancer Center examined kidney tissues and gave a toxicity grade to each kidney tissue sample. The grading was based on the general pathology guidelines for kidney toxicity.

Here are results for one compound from patent US20070190181A1, “Methods of treating cancer with lipid-based platinum compound forumulations administered intravenously” (priority 2005, published 2007).

As for `N.N.[Cl][Pt][Cl]` [CDDP, cis diamminedichloroplatinum], in the data set on Lewis Lung cells (inhalation therapy, nebulized 1 mg/ml, days 5, 8 and 11), the “inhibition of growth of Lewis lung tumors” value is “did not significantly inhibit”. In addition, in the data set on Lewis Lung cells (three iv doses of 2 mg/kg on days 5, 8 and 11 post tumor cell injection), the “inhibition of tumor growth (Lewis lung tumor weight vs saline)” value was “no significant inhibition of tumor growth”. For the same compound, the AUC in data set [1] (Liver) amounted to 19.96 µg·h/g/µg; in data set [1] (Lung), 5.58 µg·h/g/µg; in data set [1] (Spleen) it was 8.11 µg·h/g/µg. The “increase of BUN level compared with normal controls” value in data set [2] (ip, p=0.04) is 2.1 fold; in data set [2] (iv, p=0.008), 6.8 fold.
